In patent US11731976B2, “3-(ethoxydifluoromethyl)-6-(5-fluoro-6-(2,2,2-trifluoroethoxy)pyridin-3-yl)-[1,2,4]triazolo[4,3-a]pyridine as an ion channel modulator” (Praxis Precision Medicines, Inc., priority 2018, dated 2023) one finds inhibition data, which are given here for 21 molecules.

Where only a bound is given, the exact number is not on record here.

In this test the target is T1, human NaV1.6 (hNaV1.6) (Homo sapiens, UniProt Q9UQD0).
T1 construct: expressed in transfected cells; host or cells: HEK-293
T1 sequence (Q9UQD0 whole entry): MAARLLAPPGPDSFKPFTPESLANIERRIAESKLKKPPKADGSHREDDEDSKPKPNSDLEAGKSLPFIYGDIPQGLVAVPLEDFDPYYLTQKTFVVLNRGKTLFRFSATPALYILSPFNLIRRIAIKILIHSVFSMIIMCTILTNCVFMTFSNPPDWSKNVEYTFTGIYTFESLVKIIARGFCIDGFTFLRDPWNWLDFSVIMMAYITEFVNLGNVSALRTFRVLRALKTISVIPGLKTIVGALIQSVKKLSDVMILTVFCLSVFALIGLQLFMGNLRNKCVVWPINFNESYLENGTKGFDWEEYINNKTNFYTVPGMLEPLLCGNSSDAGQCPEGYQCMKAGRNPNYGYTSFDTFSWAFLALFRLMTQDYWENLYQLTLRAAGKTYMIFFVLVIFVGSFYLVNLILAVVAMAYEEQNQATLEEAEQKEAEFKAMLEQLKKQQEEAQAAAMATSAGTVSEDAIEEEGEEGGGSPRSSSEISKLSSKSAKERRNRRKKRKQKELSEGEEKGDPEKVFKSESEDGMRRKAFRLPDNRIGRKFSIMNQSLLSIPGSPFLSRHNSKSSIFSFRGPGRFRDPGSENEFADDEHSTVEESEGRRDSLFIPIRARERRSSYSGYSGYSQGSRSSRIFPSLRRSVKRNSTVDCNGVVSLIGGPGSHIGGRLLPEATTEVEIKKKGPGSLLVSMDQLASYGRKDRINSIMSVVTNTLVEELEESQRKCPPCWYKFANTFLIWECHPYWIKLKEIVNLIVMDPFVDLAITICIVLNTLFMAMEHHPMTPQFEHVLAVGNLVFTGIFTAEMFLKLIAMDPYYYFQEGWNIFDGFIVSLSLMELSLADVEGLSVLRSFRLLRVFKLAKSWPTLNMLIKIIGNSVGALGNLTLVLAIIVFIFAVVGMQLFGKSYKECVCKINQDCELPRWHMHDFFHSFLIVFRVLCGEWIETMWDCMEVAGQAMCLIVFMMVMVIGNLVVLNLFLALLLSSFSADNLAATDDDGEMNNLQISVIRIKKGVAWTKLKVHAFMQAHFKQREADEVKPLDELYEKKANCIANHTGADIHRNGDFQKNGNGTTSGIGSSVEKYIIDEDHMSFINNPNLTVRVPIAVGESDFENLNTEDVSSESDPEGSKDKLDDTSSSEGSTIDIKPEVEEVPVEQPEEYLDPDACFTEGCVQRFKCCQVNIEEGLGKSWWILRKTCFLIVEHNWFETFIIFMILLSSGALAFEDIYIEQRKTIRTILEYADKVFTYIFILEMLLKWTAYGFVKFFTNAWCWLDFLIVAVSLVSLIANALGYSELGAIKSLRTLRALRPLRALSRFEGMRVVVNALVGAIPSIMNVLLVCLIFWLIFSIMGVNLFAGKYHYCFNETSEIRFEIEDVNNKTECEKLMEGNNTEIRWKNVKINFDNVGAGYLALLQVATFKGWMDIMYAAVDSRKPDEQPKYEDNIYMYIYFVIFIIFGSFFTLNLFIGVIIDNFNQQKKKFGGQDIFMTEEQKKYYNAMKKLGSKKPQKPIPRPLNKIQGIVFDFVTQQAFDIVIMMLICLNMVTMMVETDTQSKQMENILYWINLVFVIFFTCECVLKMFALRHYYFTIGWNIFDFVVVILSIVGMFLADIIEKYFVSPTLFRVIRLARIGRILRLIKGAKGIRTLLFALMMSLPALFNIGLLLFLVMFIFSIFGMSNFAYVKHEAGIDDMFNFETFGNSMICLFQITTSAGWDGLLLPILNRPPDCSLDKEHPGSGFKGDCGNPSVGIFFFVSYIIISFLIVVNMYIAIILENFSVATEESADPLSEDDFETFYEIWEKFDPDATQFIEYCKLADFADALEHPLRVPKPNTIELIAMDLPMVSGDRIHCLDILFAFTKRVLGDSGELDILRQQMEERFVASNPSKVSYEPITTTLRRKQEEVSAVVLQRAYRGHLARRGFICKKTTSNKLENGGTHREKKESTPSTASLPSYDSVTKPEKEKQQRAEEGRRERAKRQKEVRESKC
Put plainly: Modulation of late sodium current (INaL), PatchXpress electrophysiology, HEK-293 cells expressing hNaV1.6. The note with it: HEK293, late current evoked by 300 nM ATX-II, read-out: NaV 1.6 Assay Data: percent inhibition of INaL at hNaV1.6. The class given is cell-based. As to the method: Functional characterization of exemplary compounds to modulate INaL expressed by the NaV1.6 voltage-gated sodium channel was accomplished using the PatchXpress™ high throughput electrophysiology platform (Molecular Devices, Sunnyvale, Calif.). HEK-293 cells expressing recombinant, human NaV1.6 (hNaV1.6) were grown in DMEM/high-glucose Dulbecco's modified, 10% FBS, 2 mM sodium pyruvate, 10 mM HEPES and 400 μg/mL G418. Cells were grown to 50%-80% confluency prior to harvesting. Trypsinized cells were washed, allowed to recover for 1 hour and then resuspended in extracellular recording solution at a concentration of 1×10^6 cells/ml. The onboard liquid handling facility of the PatchXpress was used for dispensing cells and applying test compounds. NaV late currents were evoked by the application of 300 nM ATX-II. INaL was evoked by depolarizing pulses to 0 mV for 200 ms from a non-inactivating holding potential (e.g., −120 mV) at a frequency of 0.1 Hz. INaL amplitude and stability were determined by analyzing the mean current amplitude over the final 20 ms of the test pulse. Following steady state block with exemplary compounds (e.g., as described herein), a Na+ free solution containing an impermeant cation (e.g., Choline or NDMG) was added to confirm the identify of the sodium current. Percent steady-state inhibition of INaL was calculated as: [(INaL_compound)/(INaL_control)]*100, where INaL_compound and INaL_control represent INaL recorded in the presence or absence of compound, respectively.
For the molecule `CCOC(F)(F)c1nnc2cnc(-c3cnc(O[C@@H](C)C(F)(F)F)c(F)c3)c(C)n12` [Compound 67, 3-[ethoxy(difluoro)methyl]-6-[5-fluoro-6-[(1S)-2,2,2-trifluoro-1-methyl-ethoxy]-3-pyridyl]-5-methyl-[1,2,4]triazolo[4,3-a]pyrazine], the inhibition at 1 µM was above 70%.

With `COC(F)(F)c1nnc2cc(C)c(-c3cnc(O[C@@H](C)C(F)(F)F)c(F)c3)nn12` [Compound 68, 3-[difluoro(methoxy)methyl]-6-[5-fluoro-6-[(1S)-2,2,2-trifluoro-1-methyl-ethoxy]-3-pyridyl]-7-methyl-[1,2,4]triazolo[4,3-b]pyridazine], the inhibition at 1 µM is above 70%.

Regarding `COCc1nnc2cc(C)c(-c3cnc(OC(C)(C)C(F)(F)F)c(F)c3)nn12` [Compound 69, 6-[5-fluoro-6-(2,2,2-trifluoro-1,1-dimethyl-ethoxy)-3-pyridyl]-3-(methoxymethyl)-7-methyl-[1,2,4]triazolo[4,3-b]pyridazine], the inhibition at 1 µM was in the range of 30 to 70%.

On to `COCc1nnc2cc(C)c(-c3cnc(O[C@@H](C)C(F)(F)F)c(F)c3)nn12` [Compound 70, 6-[5-fluoro-6-[(1S)-2,2,2-trifluoro-1-methyl-ethoxy]-3-pyridyl]-3-(methoxymethyl)-7-methyl-[1,2,4]triazolo[4,3-b]pyridazine], for which the inhibition at 1 µM was below 30%.

As for `COCc1nnc2cc(C)c(-c3cnc(OCC(F)(F)F)c(F)c3)nn12` [Compound 71, 6-[5-fluoro-6-(2,2,2-trifluoroethoxy)-3-pyridyl]-3-(methoxymethyl)-7-methyl-[1,2,4]triazolo[4,3-b]pyridazine], the inhibition at 1 µM is below 30%.

For `COCc1nnc2cc(C)c(-c3cnc(O[C@H](C)C(F)(F)F)c(F)c3)nn12` [Compound 72, 6-[5-fluoro-6-[(1R)-2,2,2-trifluoro-1-methyl-ethoxy]-3-pyridyl]-3-(methoxymethyl)-7-methyl-[1,2,4]triazolo[4,3-b]pyridazine], the inhibition at 1 µM was below 30%.

`COC(F)(F)c1nnc2cnc(-c3ccc(OC4CC(F)(F)C4)nc3)cn12` [Compound 73, 3-(difluoro(methoxy)methyl)-6-(6-(3,3-difluorocyclobutoxy)pyridin-3-yl)-[1,2,4]triazolo[4,3-a]pyrazine]: the inhibition at 1 µM is above 70%.

As to `FC(F)(F)COc1ccc(-c2cn3c(C(F)(F)OC4CC4)nnc3cn2)cn1` [Compound 74, 3-(cyclopropoxydifluoromethyl)-6-(6-(2,2,2-trifluoroethoxy)pyridin-3-yl)-[1,2,4]triazolo[4,3-a]pyrazine], the inhibition at 1 µM was above 70%.

With `Fc1cc(-c2cn3c(C(F)(F)OC4CC4)nnc3cn2)cnc1OCC(F)(F)F` [Compound 75, 3-(cyclopropoxydifluoromethyl)-6-(5-fluoro-6-(2,2,2-trifluoroethoxy)pyridin-3-yl)-[1,2,4]triazolo[4,3-a]pyrazine], the inhibition at 1 µM is above 70%.

With `COC(F)(F)c1nnc2cnc(-c3cnc(OC4CC(F)(F)C4)c(F)c3)cn12` [Compound 76, 3-(difluoro(methoxy)methyl)-6-(6-(3,3-difluorocyclobutoxy)-5-fluoropyridin-3-yl)-[1,2,4]triazolo[4,3-a]pyrazine], the inhibition at 1 µM was above 70%.

Consider `CCOC(F)(F)c1nnc2cnc(-c3cnc(OC4CC(F)(F)C4)c(F)c3)cn12` [Compound 77, 6-(6-(3,3-difluorocyclobutoxy)-5-fluoropyridin-3-yl)-3-(ethoxydifluoromethyl)-[1,2,4]triazolo[4,3-a]pyrazine], for which the inhibition at 1 µM was above 70%.

For `FC1(F)CC(Oc2ccc(-c3cn4c(C(F)(F)OC5CC5)nnc4cn3)cn2)C1` [Compound 78, 3-(cyclopropoxydifluoromethyl)-6-(6-(3,3-difluorocyclobutoxy)pyridin-3-yl)-[1,2,4]triazolo[4,3-a]pyrazine], the inhibition at 1 µM is above 70%.

`CCOCc1nnc2cnc(-c3cnc(OC(C)(C)C(F)(F)F)c(F)c3)cn12` [Compound 79, 3-(ethoxymethyl)-6-(5-fluoro-6-((1,1,1-trifluoro-2-methylpropan-2-yl)oxy)pyridin-3-yl)-[1,2,4]triazolo[4,3-a]pyrazine]: the inhibition at 1 µM was above 70%.

On to `CCOC(F)(F)c1nnc2cnc(-c3ccc(OCC(F)(F)F)nc3)cn12` [Compound 81, 3-(ethoxydifluoromethyl)-6-(6-(2,2,2-trifluoroethoxy)pyridin-3-yl)-[1,2,4]triazolo[4,3-a]pyrazine], for which the inhibition at 1 µM was above 70%.

Take `CC(C)COC(F)(F)c1nnc2cnc(-c3cnc(OCC(F)(F)F)c(F)c3)cn12` [Compound 82, 3-(difluoro(isobutoxy)methyl)-6-(5-fluoro-6-(2,2,2-trifluoroethoxy)pyridin-3-yl)-[1,2,4]triazolo[4,3-a]pyrazine]: the inhibition at 1 µM is above 70%.

Turning to `COC(F)(F)c1nnc2ccc(-c3cnc(OC4CC(F)(F)C4)c(F)c3)cn12` [Compound 84, 3-(difluoro(methoxy)methyl)-6-(6-(3,3-difluorocyclobutoxy)-5-fluoropyridin-3-yl)-[1,2,4]triazolo[4,3-a]pyridine], the inhibition at 1 µM was above 70%.

For `CCOC(F)(F)c1nnc2ccc(-c3cnc(OC4CC(F)(F)C4)c(F)c3)cn12` [Compound 85, 6-(6-(3,3-difluorocyclobutoxy)-5-fluoropyridin-3-yl)-3-(ethoxydifluoromethyl)-[1,2,4]triazolo[4,3-a]pyridine], the inhibition at 1 µM is above 70%.

Take `CCOC(F)(F)c1nnc2cnc(-c3ccc(O[C@H](C)C(F)(F)F)nc3)cn12` [Compound 86, (R)-3-(ethoxydifluoromethyl)-6-(6-((1,1,1-trifluoropropan-2-yl)oxy)pyridin-3-yl)-[1,2,4]triazolo[4,3-a]pyrazine]: the inhibition at 1 µM is above 70%.

Regarding `COCc1nnc2ccc(-c3ccc(OC(C)(C)C(F)(F)F)nc3)cn12` [Compound 87, 3-(methoxymethyl)-6-(6-((1,1,1-trifluoro-2-methylpropan-2-yl)oxy)pyridin-3-yl)-[1,2,4]triazolo[4,3-a]pyridine], the inhibition at 1 µM was in the range of 30 to 70%.

With `CCOC(F)(F)c1nnc2cnc(-c3ccc(OC(C)(C)C(F)(F)F)nc3)cn12` [Compound 88, 3-(ethoxydifluoromethyl)-6-(6-((1,1,1-trifluoro-2-methylpropan-2-yl)oxy)pyridin-3-yl)-[1,2,4]triazolo[4,3-a]pyrazine], the inhibition at 1 µM was above 70%.

On to `COCCOC(F)(F)c1nnc2cnc(-c3ccc(OCC(F)(F)F)nc3)cn12` [Compound 89], for which the inhibition at 1 µM fell in the range of 30 to 70%.
